Measured values: patent publication US9855257B2, “4-alkynyl imidazole derivative and medicine comprising same as active ingredient” (KAKEN PHARMACEUTICAL CO., LTD., priority 2013, dated 2018)

How the values were obtained:
rat EP4 receptor = target: T1, rat EP4 receptor (Rattus norvegicus, UniProt P43114); experiment: Rat EP4 receptor antagonistic action by the reporter assay method; type: cell-based; details: COS-7 cells expressing rat EP4 receptor, CRE-LUC reporter, PGE2 1×10^−8 mol/L; geometric mean of three cases; read-out: Intensity of EP4 Receptor Antagonistic Activity IC50
T1 construct: its translated region was integrated into the expression vector pShooter (Invitrogen); expressed in transfected cells; host or cells: COS-7 cells (Cercopithecus aethiops kidney), transiently co-transfected with ratEP4-pShooter and a CRE-LUC reporter vector
Description: Test for Evaluating the Rat EP4 Receptor Antagonistic Action by the Reporter Assay Method
The first step was the cloning of the rat EP4 receptor. Total RNA was prepared from the kidney extracted from rats. With the total RNA used as a template, the rat EP4 receptor gene was cloned by RT-PCR and its translated region was integrated into the expression vector pShooter (Invitrogen) to prepare a rat EP4 receptor expressing vector (ratEP4-pShooter).
In the next step, rat EP4 receptor expressing cells for use in the reporter assay were prepared. COS-7 cells (derived from the kidney of Cercopithecus aethiops) were cultured in Dulbecco's Modified Eagle Medium (DMEM) (supplemented with 10% fetal bovine serum) in a 75-cm^2 cell culture flask. After the cells proliferated to a subconfluent state, the medium was removed and rinsed with phosphate buffered physiological saline (PBS). Trypsin-EDTA and a growth medium were used to recover the cells, which were then centrifuged. The supernatant was removed and the cells were suspended in DMEM. The cell suspension was seeded on a 96-well plate at a density of 2×10^4 cells/100 μL/well and cultured. The DMEM was mixed with Plus reagent, Lipofectamine 2000, the rat EP4 receptor expressing vector (ratEP4-pShooter) and a CRE-LUC reporter vector (CLONTECH) to prepare a transfection solution. Three hours after the seeding of the cells, 50 μL of the medium was removed and 50 μL/well of the transfection solution was added, followed by culture overnight. Negative control cells were prepared using pShooter in place of the receptor expressing vector. The cells were seeded on a 96-well plate for reporter assay and cultured.
The medium on the 96-well plate was removed and a test compound was added in an amount of 50 μL/well. After ca. 30-min culture, a PGE2 solution (2×10^−8 mol/L) was added in an amount of 50 μL/well (final concentration of PGE2: 1×10^−8 mol/L). As a PGE2-free control, there were provided wells to which a test medium had been added in an amount of 50 μL/well. About three hours later, the medium was removed and reporter assay was performed in accordance with the protocol accompanying the Steady-Glo Luciferase Assay System kit. Luminous intensity was measured with a microplate reader (Fusion-FPα, PerkinElmer) and EP4 receptor antagonistic activity (%) was determined by the following calculation formula: EP4 receptor antagonistic activity (%)=[1−(RLU(A,X)−RLU(0))/(RLU(PGE2)−RLU(0))]×100 RLU(A,X): Luminous intensity expressed in relative luminescence units (RLU) for the case where the test compound (A) X (mol/L) and PGE2 10^−8 mol/L were both added; RLU(PGE2): Luminous intensity for the case where only PGE2 10^−8 mol/L was added; RLU(0): Luminous intensity for the case where neither test compound nor PGE2 was added.
In addition, a dose-response curve was plotted from the EP4 receptor antagonistic activities at varying concentrations of each test compound and using the following approximation formula, the IC50 (the concentration of the test compound required to inhibit the PGE2 inducing activity by 50%) was calculated to determine the intensity of the compound's EP4 receptor antagonistic activity. The results are shown in Table 2: Y=Bottom+(Top−Bottom)/{1+10^(Log IC50−Log X)} Bottom: 0 Top: 100 X: Concentration of the test compound (mol/L) Y: EP4 receptor antagonistic activity (%)

[1] = test system: Carrageenin Induced Paw Edema in Rats; experiment: Anti-inflammatory effect on carrageenin induced paw edema in rats; type: in vivo, rat; details: Wistar male rats, oral 10 mg/5 mL/kg one hour before carrageenin, paw volume four hours after treatment; means of 5˜8 cases
Description: Test for Evaluating the Anti-Inflammatory Effect on Carrageenin Induced Paw Edema in Rats
The animals were Wistar male rats (7-week old). The paw volume of the right hind leg was measured with a paw volume meter (PLETHYSMOMETER, Ugo Basile Model 7141 or 7150). One hour after orally administering a test compound at a dose of 10 mg/5 mL/kg, a carrageenin treatment group was given a 1 w/v % carrageenin solution and a non-treatment group given distilled water, each administered subcutaneously to the footpad of the right hind leg at a dose of 0.1 mL. Four hours after the treatment with carrageenin (or distilled water), the paw volume was measured and the change in paw volume from the pre-treatment value was calculated. The anti-inflammatory effect of the test compound was confirmed using the percent paw edema suppression (see below) as an indicator. In the present experimental models, Cerecoxib (COX inhibitor already available on the market as an anti-inflammatory/analgesic agent) was used as a positive control.

[2] = test system: Carrageenin Induced Hyperalgesia in Rats; experiment: Analgesic effect on carrageenin induced hyperalgesia in rats; type: in vivo; details: Rattus norvegicus, 2 h; SD male rats, oral 10 mg/5 mL/kg six hours after carrageenin, nociceptive threshold (Randall-Selitto) two hours after administration; 5˜7 cases; read-out: Percent Effectiveness
Description: Test for Evaluating Analgesic Effect on Carrageenin Induced Hyperalgesia in Rats
The animals were SD male rats (5-week old). Before treatment with carrageenin (or distilled water), the rats were measured for nociceptive thresholds in their right hind leg by the Randall-Selitto method and divided into a carrageenin treatment group and a non-treatment group to provide uniformity in nociceptive threshold. The carrageenin treatment group was given a 1 w/v % carrageenin solution and the non-treatment group given distilled water, each administered subcutaneously to the footpad of the right hind leg at a dose of 0.1 mL. Five hours after the treatment, the nociceptive thresholds were measured and the individuals with decreased thresholds were selected and grouped such that there was no inter-group difference in threshold. Six hours after the treatment, each test compound was orally administered at a dose of 10 mg/5 mL/kg. The control group was administered 0.5% methylcellulose. Two hours after the administration of the test compound (8 hours after the treatment), the nociceptive threshold was measured. The animals in the test compound group that had nociceptive thresholds greater than [(the mean nociceptive threshold of the control group)+2×standard deviation] were found “effective animals” and the percent effectiveness of each compound was calculated.

[3] = test system: Adjuvant Induced Arthritis in Rats; experiment: Anti-inflammatory and analgesic effects on adjuvant induced arthritis in rats; type: in vivo, rat; design: Percent Effectiveness: scale not given: direction of the effect not stated beside the values; details: Lewis male rats, oral 0.3 mg/kg once a day, day 9 to day 17 after adjuvant; for Percent paw edema suppression: measured at day 18, means of 8˜10 cases; for Percent Effectiveness: pain threshold at day 18, 8˜10 cases
Description: Test for Evaluating Anti-Inflammatory and Analgesic Effects on Adjuvant Induced Arthritis in Rats
The animals were Lewis male rats (6-week old). An adjuvant solution (2 mg/mL) was administered intradermally to the footpad of the left hind leg of each animal at a dose of 0.1 mL to create an arthritis model. Paw volume was measured with a paw volume meter (PLETHYSMOMETER, Ugo Basile Model 7141). For evaluation of pain thresholds, a probe fitted to the sensor site of Pressure Application Measurement (PAM, Ugo Basile Model 38500) was used to turn the foot sole of a rat upward (dorsiflexion) until it gave an indication of pain or discomfort (vocalization) and the load being applied was measured. Eight days after the treatment with the adjuvant, the paw volume and pain threshold of each treated foot were measured and the animals were grouped for oral administration of each test compound (0.3 mg/kg) which was performed for nine days on a once-a-day schedule starting at day 9 and ending at day 17 after the treatment. At day 18 after the treatment, the paw volume and pain threshold of each […] foot were measured.
The anti-inflammatory effect of the test compound was confirmed using the percent paw edema suppression as an indicator. Percent paw edema suppression (%)=[(paw volume change in the control group−paw volume in each treatment group)/(paw volume change in the control group−paw volume change in the non-treatment group)]×100
As for the analgesic effect, the animals in the test compound group that had nociceptive thresholds greater than [(the mean nociceptive threshold of the control group)+2×standard deviation] were found “effective animals” and the percent effectiveness of each compound was calculated.

[4] = test system: Monoiodoacetic Acid Induced Joint Pain in Rats; experiment: Analgesic effect on monoiodoacetic acid induced joint pain in rats; type: in vivo, rat; details: SD male rats, oral 10 mg/kg three days after MIA treatment, measured two hours later with incapacitance tester
Description: Test for Evaluating Analgesic Effect on Monoiodoacetic Acid Induced Joint Pain in Rats
The animals were SD male rats (6 week-old). The right knee of each animal was treated intraarticularly with monoiodoacetic acid (MIA) to induce joint pain. Three days after the MIA treatment, a test compound (10 mg/kg) was administered orally and two hours later, the loads on the right and left hind legs were measured with an incapacitance tester (Linton).

T1 sequence (P43114 whole entry): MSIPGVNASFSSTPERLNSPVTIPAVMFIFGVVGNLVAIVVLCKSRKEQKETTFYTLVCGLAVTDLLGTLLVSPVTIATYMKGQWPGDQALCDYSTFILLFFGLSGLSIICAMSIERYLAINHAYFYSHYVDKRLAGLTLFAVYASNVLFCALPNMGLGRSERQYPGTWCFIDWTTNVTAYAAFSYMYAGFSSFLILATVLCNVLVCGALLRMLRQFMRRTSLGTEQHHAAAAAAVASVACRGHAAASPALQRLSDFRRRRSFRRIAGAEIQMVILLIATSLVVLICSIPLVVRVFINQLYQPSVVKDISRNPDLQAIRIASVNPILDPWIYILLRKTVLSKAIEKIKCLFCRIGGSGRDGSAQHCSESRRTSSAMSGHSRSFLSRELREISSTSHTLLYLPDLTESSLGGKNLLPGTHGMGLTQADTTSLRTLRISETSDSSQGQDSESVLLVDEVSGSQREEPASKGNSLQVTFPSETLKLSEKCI

IC50 (rat EP4 receptor) [nM]	SMILES	Percent paw edema suppression [1] [%]	responders at 10 mg/kg [2] [%]	Percent paw edema suppression [3] [%]	Percent Effectiveness [3] [%]	suppression of right knee joint pain (ratio between the loads on the right and left hind legs) [4]
9.5	COC(C)(C)C#Cc1nc(Cl)n(CCOc2ccc(Cl)cc2)c1C(=O)NCC1CCC(C(=O)O)CC1 (stereo not drawn) [Compound 40]	29	100	–	–	–
34.7	COC(C)(C)C#Cc1nc(C2CC2)n(CCOc2ccc(Cl)cc2)c1C(=O)NCc1ccc(C(=O)O)cc1 [Compound 47, 4-({1-[2-(4-Chlorophenoxy)ethyl]-2-cyclopropyl-4-(3-methoxy-3-methyl-1-butyn-1-yl)-1H-imidazole-5-carboxamido}methyl)benzoic acid]	26	67	–	–	–

Further lines, the compound ahead of its results:

SMILES	IC50 (rat EP4 receptor) [nM]	Percent paw edema suppression [1] [%]	responders at 10 mg/kg [2] [%]	Percent paw edema suppression [3] [%]	Percent Effectiveness [3] [%]	suppression of right knee joint pain (ratio between the loads on the right and left hind legs) [4]
COC(C)(C)C#Cc1nc(Cl)n(Cc2ccc(C(F)(F)F)cc2)c1C(=O)NC1(c2ccc(C(=O)O)cc2)CC1 [Compound 42, 4-(1-{2-Chloro-4-(3-methoxy-3-methyl-1-butyn-1-yl)-1-[4-(trifluoromethyl)benzyl]-1H-imidazole-5-carboxamido}cyclopropyl)benzoic acid]	1.7	28	83	88	90	suppression of right knee joint pain was confirmed
COC(C)(C)C#Cc1nc(Cl)n(Cc2ccc(C(F)(F)F)cc2)c1C(=O)NC[C@H]1CC[C@H](C(=O)O)CC1 [Compound 10, trans-4-({2-Chloro-4-(3-methoxy-3-methyl-1-butyn-1-yl)-1-[4-(trifluormethyl)benzyl]-1H-imidazole-5-carboxamido}methyl)cyclohexanecarboxylic acid]	10.9	26	100	82	78	suppression of right knee joint pain was confirmed
CC(C)(O)C#Cc1nc(Cl)n(CCOc2ccc(Cl)cc2)c1C(=O)NCC1CCC(C(=O)O)CC1 (stereo not drawn) [Compound 39]	35	22	100	–	–	–
COC(C)(C)C#Cc1nc(Cl)n(Cc2ccc(C)cc2)c1C(=O)NC[C@H]1CC[C@H](C(=O)O)CC1 [Compound 22, trans-4-{[2-Chloro-4-(3-methoxy-3-methyl-1-butyn-1-yl)-1-(4-methylbenzyl)-1H-imidazole-5-carboxamido]methyl}cyclohexanecarboxylic acid]	11.8	19	83	90	60	suppression of right knee joint pain was confirmed
